Results taken from article PMC10853903 (Analytical Chemistry, 2024).

Molecular target: agglutinin 120 from Ricinus communis (RCA120) (Ricinus communis, UniProt P06750)
Test: biochemical
Type: binding

`CO[C@@H]1O[C@H](CO)[C@H](O)[C@H](O)[C@H]1O` [methyl-β-D-galactoside] showed a Kd of 271 µM.
